pIC50: −log10 of the molar value.

T1 sequence (O95180 whole entry): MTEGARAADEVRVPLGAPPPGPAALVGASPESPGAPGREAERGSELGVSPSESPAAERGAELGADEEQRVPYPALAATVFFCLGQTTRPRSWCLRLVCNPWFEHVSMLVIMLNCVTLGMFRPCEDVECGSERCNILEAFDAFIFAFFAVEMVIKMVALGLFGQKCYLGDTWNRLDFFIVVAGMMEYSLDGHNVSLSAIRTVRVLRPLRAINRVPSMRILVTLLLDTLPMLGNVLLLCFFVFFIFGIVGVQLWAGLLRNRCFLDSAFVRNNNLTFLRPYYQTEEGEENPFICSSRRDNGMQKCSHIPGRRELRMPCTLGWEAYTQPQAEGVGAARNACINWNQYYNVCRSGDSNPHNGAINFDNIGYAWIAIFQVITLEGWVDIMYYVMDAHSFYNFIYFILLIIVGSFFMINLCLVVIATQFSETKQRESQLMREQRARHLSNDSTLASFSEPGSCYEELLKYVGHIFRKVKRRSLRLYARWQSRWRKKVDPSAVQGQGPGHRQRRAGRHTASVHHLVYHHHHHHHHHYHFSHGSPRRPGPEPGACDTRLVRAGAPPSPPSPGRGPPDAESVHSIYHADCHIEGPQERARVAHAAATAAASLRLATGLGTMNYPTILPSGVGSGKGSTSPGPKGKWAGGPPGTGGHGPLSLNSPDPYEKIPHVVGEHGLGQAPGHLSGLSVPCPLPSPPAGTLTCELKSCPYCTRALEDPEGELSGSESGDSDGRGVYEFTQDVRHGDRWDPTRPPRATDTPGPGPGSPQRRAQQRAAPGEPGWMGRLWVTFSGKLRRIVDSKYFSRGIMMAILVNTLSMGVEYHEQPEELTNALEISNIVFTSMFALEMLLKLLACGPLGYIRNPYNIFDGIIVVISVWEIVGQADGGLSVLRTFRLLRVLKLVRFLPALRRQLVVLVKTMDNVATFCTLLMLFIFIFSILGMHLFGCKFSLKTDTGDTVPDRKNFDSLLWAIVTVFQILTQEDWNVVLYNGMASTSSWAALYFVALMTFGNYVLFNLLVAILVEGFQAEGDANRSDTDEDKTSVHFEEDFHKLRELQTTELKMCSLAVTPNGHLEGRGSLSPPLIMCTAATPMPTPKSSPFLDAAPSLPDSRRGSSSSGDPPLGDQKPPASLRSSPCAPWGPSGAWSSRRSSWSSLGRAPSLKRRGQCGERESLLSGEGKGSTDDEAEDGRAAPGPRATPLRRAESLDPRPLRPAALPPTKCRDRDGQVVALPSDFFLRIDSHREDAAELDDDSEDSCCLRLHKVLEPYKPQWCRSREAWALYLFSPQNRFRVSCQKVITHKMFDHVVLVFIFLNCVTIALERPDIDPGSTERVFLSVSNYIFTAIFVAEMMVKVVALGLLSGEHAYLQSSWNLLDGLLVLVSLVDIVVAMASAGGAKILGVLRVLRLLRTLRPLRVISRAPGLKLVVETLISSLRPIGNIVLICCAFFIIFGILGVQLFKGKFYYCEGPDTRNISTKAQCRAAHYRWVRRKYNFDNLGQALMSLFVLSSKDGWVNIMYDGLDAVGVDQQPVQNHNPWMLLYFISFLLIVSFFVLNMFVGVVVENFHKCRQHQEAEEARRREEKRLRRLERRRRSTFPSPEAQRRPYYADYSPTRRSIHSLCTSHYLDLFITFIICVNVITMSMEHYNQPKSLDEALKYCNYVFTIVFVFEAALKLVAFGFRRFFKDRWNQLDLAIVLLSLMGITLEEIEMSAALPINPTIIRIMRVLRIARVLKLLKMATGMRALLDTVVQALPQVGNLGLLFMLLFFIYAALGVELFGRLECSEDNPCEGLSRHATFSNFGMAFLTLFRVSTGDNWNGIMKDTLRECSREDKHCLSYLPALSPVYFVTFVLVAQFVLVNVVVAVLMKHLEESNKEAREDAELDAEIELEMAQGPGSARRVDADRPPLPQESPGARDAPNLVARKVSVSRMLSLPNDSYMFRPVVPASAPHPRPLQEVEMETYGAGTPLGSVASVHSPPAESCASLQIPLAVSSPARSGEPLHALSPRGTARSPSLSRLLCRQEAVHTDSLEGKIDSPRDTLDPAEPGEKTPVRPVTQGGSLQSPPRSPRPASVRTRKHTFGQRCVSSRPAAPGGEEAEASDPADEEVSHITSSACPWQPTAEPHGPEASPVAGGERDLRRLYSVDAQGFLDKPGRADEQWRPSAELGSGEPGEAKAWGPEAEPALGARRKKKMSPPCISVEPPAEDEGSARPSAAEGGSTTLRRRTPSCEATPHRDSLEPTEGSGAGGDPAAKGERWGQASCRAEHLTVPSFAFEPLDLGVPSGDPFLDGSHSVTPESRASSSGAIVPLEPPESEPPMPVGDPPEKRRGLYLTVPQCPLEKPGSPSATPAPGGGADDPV

One test concerns the target T1, human CaV3.2 (Homo sapiens, UniProt O95180).
T1 construct: expressed in transfected cells
Put plainly: IonWorks screen for hCaV3.2 (Cav3.2 Ionworks assay). Format: cell-based. The settings on record: read-out: IW hCav3 2 IC50. The text has this:
Functional evaluation of voltage-gated ion channels was used to determine potency and/or single concentration efficacy of proprietary compounds. Two different methodologies were used to measure ion currents: the IonWorks HT (Molecular Devices, Sunnyvale, Calif.) a moderate throughput voltage clamp screening platform that utilizes 96-well compound plates and conventional whole cell patch clamp for lower throughput, higher fidelity determinations.
HEK cells were transiently transfected and then selected for stable heterologous expression of different channel proteins of interest. Calcium channel cell lines expressed a resting potassium current, human Kir2.1, and the pore forming α-subunit of voltage-gated calcium channels. In the case of CaV2.1 cells the auxiliary subunit, β2a, was also expressed. Calcium channel lines that were used to generate the data in this document expressed either human CaV3.2, rat CaV3.2 or human CaV2.1. The human heart sodium channel, hNaV1.5, was stably expressed in CHO cells. These cells were licensed from the University of Pennsylvania.
Cell lines were grown at 37° C. in humidified incubators, equilibrated with 95% air/5%0 CO2 CHO cells were grown in Ham's F-12 medium. HEK cells were grown in DMEM. All media were supplemented with 10% heat-inactivated fetal bovine serum, penicillin, streptomycin and appropriate selection antibiotics (zeocin, geneticin and/or hygromycin). Cells were passaged when 80% confluent or less.
IonWorks Screen for hCaV3.2
The extracellular buffer for experiments using this instrument contained the following (mM) (NaCl 125, HEPES 10, KCl 5.4, CaCl2 1.8, MgCl2 1.8, 0.2 BaCl2 pH 7.35). The IonWorks uses amphotericin to gain electrical access to the cell interior. The internal solution contained (mM concentrations): 130 K-gluconate, 20 KCl, 5 HEPES-KOH (pH 7.25), 2 CaCl2, 1 MgCl2. Amphotericin added at 5 mg in 65 ml when present (in 650 μl DMSO). All internal and external solutions for this experiment contain 1% DMSO. Cells were acutely trypsinized from a T-75 flask and resuspended in extracellular buffer at a density of 2×10^5 cells/ml.
Experiments were performed at room temperature. Transmembrane potential was held at −100 mV for 5 seconds prior to running the voltage protocol. During this time leak currents were measured during a step to −110 mV (200 milliseconds). T-type calcium currents were activated with a 250 millisecond step to −20 mV. This depolarization step was repeated for a total of 10 pulses with an interpulse interval of 1 second. Data were excluded if the following acceptance criteria were not met: total resistance for the pre-compound scan >65 MΩ, pre-compound current >250 pA, post compound total resistance >50 MΩ.
T-type currents were measured as the peak inward current minus the current at the end of the 250 msec step to −20 mV. After the recoding configuration was established there was a pre-compound measurement of current amplitude. Compound was added as a 3× solution containing 1% DMSO. After incubation with compound for 10 minutes currents were measured again. The current amplitude after compound addition was divided by the pre-compound current for pulse 10 to determine the fraction of current remaining after compound addition. For each compound, 8-point concentration-effect relationships were measured with ½ log serial dilutions.
For orientation: pIC50 means −log10 of the IC50, conventionally taken in molar units. As to `CC(C)N1CC2(CCN(C(=O)Nc3ccc(F)cc3)CC2)C1c1ccc(Cl)cc1` (single isomer, unassigned), the negative-log IC50 (pIC50) was 7.16.

With `CC[C@H](C)[C@H](NC(=O)N1CCC2(CC1)CN(c1ccc(F)cc1)C2c1ccc(Cl)cc1)C(=O)OC` (stereo partly shown), the pIC50 was 7.11.

For `CC(C)N1CC2(CCN(C(=O)Nc3cc(F)cc(F)c3)CC2)C1c1ccc(Cl)cc1` (single isomer, unassigned), the pIC50 is 7.49.

For the molecule `COC(=O)[C@H](CC(C)C)NC(=O)N1CCC2(CC1)CN(C(C)C)C2c1ccc(Cl)cc1` (stereo partly shown), the negative logarithm of the IC50 (pIC50) is 7.19.

Turning to `CC[C@H](C)[C@H](NC(=O)N1CCC2(CC1)CN(CC(C)C)C2c1ccc(Cl)cc1)C(=O)OC` (stereo partly shown), the pIC50 was 7.59.

Regarding `O=C(C1CCCCC1)N1CCC2(CC1)CN(C(=O)C1(c3ccc(Cl)cc3)CCCC1)C2c1ccccc1` (stereo not shown), the pIC50 is 6.42.

`COC(=O)[C@@H](NC(=O)N1CCC2(CC1)CN(CC(C)C)C2c1ccc(Cl)cc1)C(C)C` (stereo partly shown): the pIC50 was 7.49.

On to `COC(=O)[C@H](CC(C)C)NC(=O)N1CCC2(CC1)CN(CC(C)C)C2c1ccc(Cl)cc1` (stereo partly shown), for which the pIC50 was 7.64.

The target in a further test is T2, human-SP9215 (GPR119) (Homo sapiens, UniProt Q8TDV5).
T2 construct: expressed in transfected cells
T2 sequence (Q8TDV5 1-335): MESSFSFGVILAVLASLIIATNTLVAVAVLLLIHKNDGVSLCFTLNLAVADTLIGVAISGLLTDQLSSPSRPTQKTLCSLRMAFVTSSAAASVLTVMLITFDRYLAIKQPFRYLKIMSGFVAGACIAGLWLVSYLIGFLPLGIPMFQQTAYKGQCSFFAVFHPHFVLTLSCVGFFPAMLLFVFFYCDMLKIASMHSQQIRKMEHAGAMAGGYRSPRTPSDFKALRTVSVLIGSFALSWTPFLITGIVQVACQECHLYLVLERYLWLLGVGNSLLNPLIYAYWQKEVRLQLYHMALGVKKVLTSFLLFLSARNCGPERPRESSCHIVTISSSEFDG
Put plainly: GPR119 screening assay (LANCE cAMP). In kind it is cell-based. The settings on record: HEK 293 cells stably transfected with human GPR119, read-out: GPR 119 cAMP IC50. As to the method:
• +100 mg BSA (MP Biomedicals faction V, #103703)=0.1% • +500 ul 1M HEPES (Cellgro #25-060-CI)=5 mM • +75 ul RO-20 (Sigma B8279; 20 mM stock in DMSO stored in aliquots at −20 C)=15 uM • (made fresh daily) B84 (N-[4-(methylsulfonyl)phenyl]-5-nitro-6-[4-(phenylthio)-1-piperidinyl]-4-pyrimidinamine, see WO 2004/065380). A 10 mM stock solution of the test compound in DMSO was prepared, aliquoted and stored at −20 C. For Totals—Dilute 1:33.3 in DMSO then 1:50 in Stimulation Buffer=6 uM in 2% DMSO (=3 uM B84 and 1% DMSO final). For Dose Response Curve—3 ul stock+7 ul DMSO+490 ul Stim Buffer=60 uM in 2% DMSO (=30 uM B84 and 1% DMSO final). (made fresh daily). Cell Line: Human clone 3. HEK 293 cells stable transfected with human-SP9215 (GPR119)/pcDNA3.1 and also stable for pCRELuc, Stratagene. Cells are maintained in DMEM containing 10% FBS (invitrogen #02-4006Dk, lot #1272302, heat inactivated), 1×MEM, 1× Pen/Strep, 0.1 mg/ml Hygromycin 6, and […] G418. Cells are split 1:8 twice per week. cAMP Kit: LANCE™ cAMP 384 kit, Perkin Elmer #AD0263 Compound Dilutions: • Add DMSO to vials containing compounds to yield a 1 mg/ml solution. • 1. Dilute compounds to 60 μM in Stimulation buffer. Make ½ log dilutions into Stimulation buffer containing 2% DMSO using the epMotion robot. 10 point dose response curve 1 nM to 30 uM. • 2. Compounds are run in quadruplicate, 2 separate dilutions for each, sets 1 and 1a. Assay Procedure: • 1. The afternoon before the assay, replace the media in the flask of Human clone 3 cells with Optimem. (Gibco #11058-021) NOTE: cells should be in culture 6-8 days. • 2. Next morning, pipette the cells gently off the flask using HBSS (RT). • 3. Pellet the cells (1300 rpm, 7 min, RT) and resuspend in Stimulation Buffer at […] (=5-8,000 cell/6 ul). Add 1:100 dilution of Alexa Fluor 647-anti cAMP antibody (provided in the kit) directly to the cell suspension. • 4. Into white 384-well plates (Matrix) add 6 ul of 2× B84, cmpds or stim buffer for nsb. They all contain 2% DMSO (=1% DMSO final). • 5. Add 6 ul of the cell suspension to the wells. Incubate 30 minutes RT. • 6. For the std curve add 6 ul cAMP std solution diluted in Stim Buffer+2% DMSO according to kit directions (1000-3 nM). Add 6 ul of 1:100 anti-cAMP dilution in Stim Buffer to std wells. • 7. Make Detection Mix according to kit instructions and incubate 15 min RT. • 8. Add 12 ul Detection Mix to all the wells. Mix gently by tapping and incubate 2-3 hrs RT. • 9. Read on the Envision under the protocol “Lance/Delphia cAMP” • 10. Values (nM) for each sample are determined by extrapolation from the std curve. % Control, Fold and EC50 (Control=3 uM B84) are determined for each compound, averaging sets 1 and 1a. Results
Regarding `O=C(c1ccc2c(c1)OCCCO2)N1CCC2(CC1)CN(Cc1ccccc1Cl)C2c1ccc(Cl)cc1` (stereo not shown), the pIC50 was 5.56.

Consider `O=C(c1ccc2[nH]cnc2c1)N1CCC2(CC1)CN(Cc1ccccc1Cl)C2c1ccccc1` (stereo not shown), for which the pIC50 is 5.53.

For the molecule `CC(C)CN1CC2(CCN(C(=O)c3ccc4c(c3)OCCCO4)CC2)C1c1ccc(Cl)cc1` (stereo not shown), the pIC50 is 5.58.

With `CC(C)CN1CC2(CCN(C(=O)c3ccc4c(c3)OCCCO4)CC2)C1c1ccccc1` (stereo not shown), the pIC50 is 5.72.

For the molecule `O=C(c1ccc2c(c1)OCCCO2)N1CCC2(CC1)CN(c1ccc(F)cc1)C2c1ccc(Cl)cc1` (stereo not shown), the pIC50 is 5.79.
